# According to article PMC8537445, “D-Peptide-Based Probe for CXCR4-Targeted Molecular Imaging and Radionuclide Therapy” (Pharmaceutics, 2021):
# Positions of bridges follow the written chain, without caps; N, C: chain ends. Non-standard residues stand in square brackets, D forms with d. Residues, ends and D or L forms follow the SMILES beside them. Chains are numbered I, II in the order given. *: point of attachment. NOTA = O=C(O)CN1CCN(CC(=O)O)CCN(CC(=O)*)CC1
# Key:
# [1] = PET/CT imaging in wild-type mice; type: in vivo, mouse; conditions: dynamic PET 0–60 min p.i., AMD3100 5 mg/kg
# Protocol: Dynamic PET images were acquired for 60 min immediately after intravenous injection using a beta-cube PET scanner (Molecubes, Gent, Belgium). The mice were kept under gas anesthesia during the entire procedure (2.5% isoflurane in O2 at 1 L/min flow rate), with temperature and respiration monitored throughout. After PET scanning, a CT image was acquired for anatomic coregistration with an X-cube CT scanner (Molecubes, Gent, Belgium), using the ‘general’ protocol with the following parameters: 50 kVp, 480 exposures, 85 ms/projection, 100 μA tube current, rotation time 60 s. After scanning, mice were sacrificed 75 min p.i. and a whole-body biodistribution study was performed.
# PET data were histogrammed into 14 frames (4 × 15 s, 4 × 1 min, 1 × 5 min, 5 × 10 min) and reconstructed into a 192 × 192 image matrix with 0.4 mm voxels using 30 iterations the native MLEM algorithm with corrections for randoms, scatter, attenuation and decay. CT Data were reconstructed using a regularized statistical (iterative) image reconstruction algorithm using non-negative least squares, using an isotropic 200 μm voxel size and scaled to Hounsfield Units (HUs) after calibration against a standard air/water phantom. […] Radiotracer uptake at 60 min, expressed as SUVmean, was the outcome measure.
# [2] = In vivo radiometabolite analysis in plasma and urine; set-up: species or system mouse; conditions: wild-type mice
# Protocol: Plasma samples were obtained by decapitation 15 min p.i. (n = 2). Blood was collected in EDTA tubes and centrifuged for 5 min at 3000× g. Subsequently, plasma was removed and diluted (1:2) with acetonitrile to precipitate all plasma proteins. After centrifugation (5 min at 3000× g), the supernatant was diluted (1:10) with water and filtered (0.22 µm) before injection on radioHPLC. Urine samples were collected 75 min p.i. (n = 3) by gently pressing on the bladder. The collected urine was filtered (0.22 µm) before injection on radioHPLC. Due to low radioactivity concentration in the plasma samples, 30 fractions of 30 s per plasma sample were collected. Radioactivity in the fractions was determined in an automated gamma counter.
# [3] = Ex vivo biodistribution in wild-type mice; conditions: mouse, total radioactivity, 75 min p.i., ex vivo gamma counting, mean ± SD
# Protocol: The in vivo pharmacokinetics of the selected radioligands were first evaluated in wild-type mice by performing a whole-body biodistribution study. […] Blood and major organs were collected in tared tubes and weighed. Quantification of radioactivity in blood, organs, and other body parts was performed using an automated gamma counter equipped with a 3-inch NaI(Tl) well crystal coupled to a multichannel analyzer, mounted in a sample changer (2480 Wizard^2, Perkin Elmer, Waltham, MA, USA). Counts were corrected for background radiation, physical decay and counter dead time. Results are presented as standardized uptake values (SUV; tissue activity concentration (MBq/g)/[injected dose (MBq)/body weight (g)]).
# [4] = Ex vivo biodistribution in U87.hCXCR4 tumor-bearing mice; set-up: species or system mouse; conditions: female, SCID (CB17.Cg-Prkdc<scid>Lyst<bg-J>/Crl), mouse, iv, total radioactivity, 75 min p.i., mean ± SD
smiles,measurement,setting,value
CC(C)C[C@@H](N)C(=O)NCC(=O)N[C@H](C)C(=O)N[C@H](CO)C(=O)N[C@H](Cc1c[nH]c2ccccc12)C(=O)N[C@H](Cc1c[nH]cn1)C(=O)N[C@H](CCCNC(=N)N)C(=O)N1CCC[C@@H]1C(=O)N[C@H](CC(=O)O)C(=O)N[C@H](CCCCNC(=O)CN1CCN(CC(=O)O)CCN(CC(=O)O)CC1)C(=O)NCCCC[C@@H](NC(=O)[C@H]1CCCN1C(=O)[C@@H](CC(C)C)NC(=O)[C@H]1CCCN1C(=O)[C@@H](CCCNC(=N)N)NC(=O)[C@@H](CCCCN)NC(=O)[C@@H](CCC(N)=O)NC(=O)[C@@H](Cc1ccc(O)cc1)NC(=O)CNC(=O)[C@@H](CC(C)C)NC(=O)[C@@H](CS)NC(=O)[C@@H](CS)NC(=O)[C@@H](CCCCN)NC(=O)[C@@H](CC(=O)O)NC(=O)[C@H]1CCCN1C(=O)[C@@H](CCCNC(=N)N)NC(=O)[C@@H](Cc1c[nH]cn1)NC(=O)[C@@H](Cc1c[nH]c2ccccc12)NC(=O)[C@@H](CO)NC(=O)[C@@H](C)NC(=O)CNC(=O)[C@H](N)CC(C)C)C(=O)O [[^18F]AlF-NOTA-DV1-k-(DV3)] (I: H-[dL]G[dA][dS][dW][dH][dR][dP][dD][dK][dC][dC][dL]G[dY][dQ][dK][dR][dP][dL][dP][dK]-OH / II: H-[dL]G[dA][dS][dW][dH][dR][dP][dD][dK](NOTA); amide I:22-II:C),kidney uptake on co-injection of AMD3100,[1],increased with a factor of two
same,liver retention on co-injection of AMD3100,[1],completely blocked
same,parent (intact) radioligand in plasma,"[2]; i.v., plasma 15 min p.i., radioHPLC fractions, gamma counter, n = 2",86 ± 0.1%
same,parent (intact) radioligand in urine,"[2]; i.v., urine 75 min p.i., radioHPLC, n = 3",37 ± 2%
same,polar metabolites in plasma,"[2]; plasma 15 min p.i., n = 2",14 ± 0.1%
same,polar metabolites in urine,"[2]; urine 75 min p.i., n = 3",63 ± 2%
same,SUV at 1.25 h,"[3]; blood, + AMD3100 5 mg/kg, n: PentixaFor 1, 18F 2, 68Ga 4, 177Lu 3, read-out: blood uptake",0.5 SUV
same,SUV at 1.25 h,"[3]; blood, tracer alone, n: PentixaFor 3, 18F 5, 68Ga 4, 177Lu 3, read-out: blood uptake",0.2 ± 0.1 SUV
same,SUV at 1.25 h,"[3]; bone (femur harboring bone marrow), tracer alone, n: PentixaFor 3, 18F 5, 68Ga 4, 177Lu 3, read-out: bone uptake (femur harboring bone marrow)",0.7 ± 0.4 SUV
same,SUV at 1.25 h,"[3]; brain, + AMD3100 5 mg/kg, n: PentixaFor 1, 18F 2, 68Ga 4, 177Lu 3, read-out: brain uptake",0.02 SUV
same,SUV at 1.25 h,"[3]; brain, tracer alone, n: PentixaFor 3, 18F 5, 68Ga 4, 177Lu 3, read-out: brain uptake",0.01 ± 0.003 SUV
same,SUV at 1.25 h,"[3]; heart, + AMD3100 5 mg/kg, n: PentixaFor 1, 18F 2, 68Ga 4, 177Lu 3, read-out: heart uptake",0.2 SUV
same,SUV at 1.25 h,"[3]; heart, tracer alone, n: PentixaFor 3, 18F 5, 68Ga 4, 177Lu 3, read-out: heart uptake",0.2 ± 0.1 SUV
same,SUV at 1.25 h,"[3]; kidneys, + AMD3100 5 mg/kg, n: PentixaFor 1, 18F 2, 68Ga 4, 177Lu 3, read-out: kidneys uptake",35.4 SUV
same,SUV at 1.25 h,"[3]; kidneys, tracer alone, n: PentixaFor 3, 18F 5, 68Ga 4, 177Lu 3, read-out: kidneys uptake",23.2 ± 3.9 SUV
same,SUV at 1.25 h,"[3]; liver, + AMD3100 5 mg/kg, n: PentixaFor 1, 18F 2, 68Ga 4, 177Lu 3, read-out: liver uptake",1 SUV
same,SUV at 1.25 h,"[3]; liver, tracer alone, n: PentixaFor 3, 18F 5, 68Ga 4, 177Lu 3, read-out: liver uptake",7.4 ± 0.5 SUV
same,SUV at 1.25 h,"[3]; lungs, + AMD3100 5 mg/kg, n: PentixaFor 1, 18F 2, 68Ga 4, 177Lu 3, read-out: lungs uptake",0.8 SUV
same,SUV at 1.25 h,"[3]; lungs, tracer alone, n: PentixaFor 3, 18F 5, 68Ga 4, 177Lu 3, read-out: lungs uptake",0.8 ± 0.2 SUV
same,SUV at 1.25 h,"[3]; pancreas, + AMD3100 5 mg/kg, n: PentixaFor 1, 18F 2, 68Ga 4, 177Lu 3, read-out: pancreas uptake",0.1 SUV
same,SUV at 1.25 h,"[3]; pancreas, tracer alone, n: PentixaFor 3, 18F 5, 68Ga 4, 177Lu 3, read-out: pancreas uptake",0.1 ± 0.02 SUV
same,SUV at 1.25 h,"[3]; spleen, + AMD3100 5 mg/kg, n: PentixaFor 1, 18F 2, 68Ga 4, 177Lu 3, read-out: spleen uptake",0.9 SUV
same,SUV at 1.25 h,"[3]; spleen, tracer alone, n: PentixaFor 3, 18F 5, 68Ga 4, 177Lu 3, read-out: spleen uptake",3.2 ± 0.8 SUV
same,SUV at 1.25 h,"[4]; blood, co-injected DV1-k-(DV3) 7 nmol, n = 3, read-out: blood uptake",0.4 ± 0.2 SUV
same,SUV at 1.25 h,"[4]; blood, co-injected DV1-k-(DV3) 14 nmol, n = 4, read-out: blood uptake",0.5 ± 0.3 SUV
same,SUV at 1.25 h,"[4]; blood, tracer alone (0 nmol), n = 4, read-out: blood uptake",0.1 ± 0.1 SUV
same,SUV at 1.25 h,"[4]; blood, with AMD3100 5 mg/kg (157 nmol), co-injected, co-injected AMD3100 5 mg/kg (157 nmol), n = 4, read-out: blood uptake",0.3 ± 0.2 SUV
same,SUV at 1.25 h,"[4]; bone, co-injected AMD3100 5 mg/kg (157 nmol), n = 4, read-out: bone uptake",0.1 ± 0.04 SUV
same,SUV at 1.25 h,"[4]; bone, co-injected DV1-k-(DV3) 7 nmol, n = 3, read-out: bone uptake",0.2 ± 0.04 SUV
same,SUV at 1.25 h,"[4]; bone, co-injected DV1-k-(DV3) 14 nmol, n = 4, read-out: bone uptake",0.3 ± 0.1 SUV
same,SUV at 1.25 h,"[4]; bone, co-injected DV1-k-(DV3) 24 nmol, n = 4, read-out: bone uptake",0.2 ± 0.04 SUV
same,SUV at 1.25 h,"[4]; bone, tracer alone (0 nmol), n = 4, read-out: bone uptake",0.4 ± 0.1 SUV
same,SUV at 1.25 h,"[4]; brain, co-injected AMD3100 5 mg/kg (157 nmol), n = 4, read-out: brain uptake",0.01 ± 0.004 SUV
same,SUV at 1.25 h,"[4]; brain, co-injected DV1-k-(DV3) 7 nmol, n = 3, read-out: brain uptake",0.02 ± 0.01 SUV
same,SUV at 1.25 h,"[4]; brain, co-injected DV1-k-(DV3) 14 nmol, n = 4, read-out: brain uptake",0.03 ± 0.01 SUV
same,SUV at 1.25 h,"[4]; brain, co-injected DV1-k-(DV3) 24 nmol, n = 4, read-out: brain uptake",0.02 ± 0.01 SUV
same,SUV at 1.25 h,"[4]; brain, tracer alone (0 nmol), n = 4, read-out: brain uptake",0.01 ± 0.001 SUV
same,SUV at 1.25 h,"[4]; heart, co-injected AMD3100 5 mg/kg (157 nmol), n = 4, read-out: heart uptake",0.1 ± 0.1 SUV
same,SUV at 1.25 h,"[4]; heart, co-injected DV1-k-(DV3) 7 nmol, n = 3, read-out: heart uptake",0.2 ± 0.1 SUV
same,SUV at 1.25 h,"[4]; heart, co-injected DV1-k-(DV3) 14 nmol, n = 4, read-out: heart uptake",0.3 ± 0.1 SUV
same,SUV at 1.25 h,"[4]; heart, co-injected DV1-k-(DV3) 24 nmol, n = 4, read-out: heart uptake",0.2 ± 0.1 SUV
same,SUV at 1.25 h,"[4]; heart, tracer alone (0 nmol), n = 4, read-out: heart uptake",0.1 ± 0.04 SUV
same,SUV at 1.25 h,"[4]; kidneys, co-injected AMD3100 5 mg/kg (157 nmol), n = 4, read-out: kidneys uptake",47.5 ± 3.1 SUV
same,SUV at 1.25 h,"[4]; kidneys, co-injected DV1-k-(DV3) 7 nmol, n = 3, read-out: kidneys uptake",39.2 ± 7.6 SUV
same,SUV at 1.25 h,"[4]; kidneys, co-injected DV1-k-(DV3) 14 nmol, n = 4, read-out: kidneys uptake",33.6 ± 12.4 SUV
same,SUV at 1.25 h,"[4]; kidneys, co-injected DV1-k-(DV3) 24 nmol, n = 4, read-out: kidneys uptake",36.1 ± 5.9 SUV
same,SUV at 1.25 h,"[4]; kidneys, tracer alone (0 nmol), n = 4, read-out: kidneys uptake",26.5 ± 6 SUV
same,SUV at 1.25 h,"[4]; liver, co-injected AMD3100 5 mg/kg (157 nmol), n = 4, read-out: liver uptake",0.9 ± 0.3 SUV
same,SUV at 1.25 h,"[4]; liver, tracer alone (0 nmol), n = 4, read-out: liver uptake",8.2 ± 1 SUV
same,SUV at 1.25 h,"[4]; liver, with unlabelled DV1-k-(DV3) 7 nmol, co-injected, co-injected DV1-k-(DV3) 7 nmol, n = 3, read-out: liver uptake",1.2 ± 0.1 SUV
same,SUV at 1.25 h,"[4]; liver, with unlabelled DV1-k-(DV3) 14 nmol, co-injected, co-injected DV1-k-(DV3) 14 nmol, n = 4, read-out: liver uptake",1.2 ± 0.4 SUV
same,SUV at 1.25 h,"[4]; liver, with unlabelled DV1-k-(DV3) 24 nmol, co-injected, co-injected DV1-k-(DV3) 24 nmol, n = 4, read-out: liver uptake",0.7 ± 0.1 SUV
same,SUV at 1.25 h,"[4]; lungs, co-injected AMD3100 5 mg/kg (157 nmol), n = 4, read-out: lungs uptake",0.5 ± 0.1 SUV
same,SUV at 1.25 h,"[4]; lungs, co-injected DV1-k-(DV3) 7 nmol, n = 3, read-out: lungs uptake",0.7 ± 0.2 SUV
same,SUV at 1.25 h,"[4]; lungs, co-injected DV1-k-(DV3) 14 nmol, n = 4, read-out: lungs uptake",0.9 ± 0.3 SUV
same,SUV at 1.25 h,"[4]; lungs, co-injected DV1-k-(DV3) 24 nmol, n = 4, read-out: lungs uptake",0.6 ± 0.2 SUV
same,SUV at 1.25 h,"[4]; lungs, tracer alone (0 nmol), n = 4, read-out: lungs uptake",0.6 ± 0.2 SUV
same,SUV at 1.25 h,"[4]; muscle, co-injected DV1-k-(DV3) 7 nmol, n = 3, read-out: muscle uptake",0.2 ± 0.1 SUV
